Reference: patent publication US20030138429A1, “Compositions and methods for inhibiting metastasis” (priority 2001, published 2003)

Columns and labels:
[1] = biological target: T1, DPP IV isolated from 1-LN cell membranes (Homo sapiens, UniProt P27487); assay: Solid phase radioligand binding of Pg 2 glycoforms to immobilized DPP IV; conditions: for Binding to immobilized DPP IV: DPP IV 1 μg/ml coated on 96-well plates, in words
T1 construct: DPP IV from 1-LN cell membranes was purified to homogeneity as described under Experimental Procedures; endogenous in cells; host or cells: 1-LN human prostate tumor cells; Membranes were solubilized with Triton X-100; The enzyme was then purified on DEAE-Sepharose, Gly-Leu-Sepharose, concanavalin A-Sepharose and by gel filtration
T1 sequence (P27487 whole entry): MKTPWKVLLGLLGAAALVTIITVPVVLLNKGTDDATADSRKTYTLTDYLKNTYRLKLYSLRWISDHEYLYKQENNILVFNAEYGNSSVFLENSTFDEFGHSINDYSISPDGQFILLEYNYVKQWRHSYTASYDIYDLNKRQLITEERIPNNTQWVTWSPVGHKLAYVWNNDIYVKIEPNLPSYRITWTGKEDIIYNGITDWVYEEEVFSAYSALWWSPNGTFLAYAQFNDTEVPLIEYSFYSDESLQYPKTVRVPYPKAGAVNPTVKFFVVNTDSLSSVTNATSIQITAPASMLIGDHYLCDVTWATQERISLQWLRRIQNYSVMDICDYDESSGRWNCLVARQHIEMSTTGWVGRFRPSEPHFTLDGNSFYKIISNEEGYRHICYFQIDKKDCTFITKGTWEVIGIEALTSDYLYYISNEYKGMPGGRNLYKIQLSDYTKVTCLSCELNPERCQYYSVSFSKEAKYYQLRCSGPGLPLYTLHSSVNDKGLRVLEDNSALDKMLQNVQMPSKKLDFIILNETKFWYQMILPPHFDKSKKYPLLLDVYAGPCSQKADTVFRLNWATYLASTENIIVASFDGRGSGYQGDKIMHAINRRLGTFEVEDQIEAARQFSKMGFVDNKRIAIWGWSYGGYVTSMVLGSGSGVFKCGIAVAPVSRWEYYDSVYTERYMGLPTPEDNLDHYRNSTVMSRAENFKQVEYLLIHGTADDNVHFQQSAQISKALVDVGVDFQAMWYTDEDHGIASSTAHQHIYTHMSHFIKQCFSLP
Description: Purification of DPP IV from 1-LN Cell Membranes—Cells grown in 20 culture flasks (150 cm^2) were detached with 10 mM EDTA in Hanks' balanced salt solution (HBSS) and pelleted by centrifugation. The cell pellet was suspended in 10 ml of 20 mM Hepes, pH 7.2, containing 0.25 M sucrose and 0.5 mg/ml each of the following proteinase inhibitors: antipain-HCl, bestatin, chymostatin, transepoxysuccinyl-L-leucylamido-(4-guanidino)butane (E-64), leupeptin, pepstatin, O-phenanthroline, and aprotinin. Cells were lyzed by sonication on ice (five 10 s bursts with 30 s intervals). All procedures were performed at 4° C. The homogenate was centrifuged at 800×g for 15 min to remove unbroken cells and nuclei, followed by centrifugation of the supernatant at 50,000×g for 1 h. The pellet containing cell membranes was resuspended in 20 mM Tris-HCl, pH 8.0, containing 1% (v/v) Triton X-100 to solubilize membranes and centrifuged again at 50,000×g for 30 min to remove insoluble materials. DPP IV activity in this supernatant and in all the following purification steps was monitored by a chromogenic assay using the DPP IV substrate Gly-Pro-pNA [36]. The enzyme was sequentially purified to homogeneity using DEAE-Sepharose ion exchange chromatography and Gly-Leu-Sepharose affinity chromatography, followed by chromatography on concanavalin A-Sepharose and gel filtration on a Sepharose S-200 column. These steps yielded fully active DPP IV (˜40 μg/1×10^9 cells). […] A sample of the protein was analyzed by matrix-assisted laser desorption ionization-MS, and the obtained mass spectrometric peptide maps (30 peptides) were used to identify DPP IV in the OWL Protein database release 29.6 [38,39].
Solid Phase Radioligand Binding Studies—To study specific binding of Pg 2 glycoforms to immobilized DPP IV purified from 1-LN cells, 96-well strip plates were coated with DPP IV (1 μg/ml in 0.1 M sodium carbonate, pH 9.6, 200 μl/well, 37° C., 2 h). After coating, plates were washed with 200 μl of 10 mM sodium phosphate, 100 mM NaCl, pH 7.4, containing 0.05% Tween-80 (PBS-Tween) to remove unbound protein. Non-specific sites were blocked by incubating with PBS-Tween containing 2% BSA at room temperature for 1 h. Plates were rinsed twice with 200 μl of PBS-Tween, air dried, and stored at 4° C. For assays, increasing concentrations of ^125I-labeled Pg 2 glycoforms, with or without 50-fold excess of unlabeled ligands, were added to triplicate wells and incubated at 37° C. for 1 h. Following incubation, the supernatants were removed and the plates rinsed three times with 200 μl PBS-Tween. Wells were stripped from the plates and radioactivity measured. Specific binding was calculated by substraction of non-specific binding measured in the presence of unlabeled ligand.
Binding of Pg 2 Glycoforms to Immobilized DPP IV Isolated from 1-LN Cell Membranes—Once identified as a Pg receptor, DPP IV from 1-LN cell membranes was purified to homogeneity as described under Experimental Procedures. […] A blot binding assay with mAb clone in the Mr˜120,000 size range. […] DPP IV immobilization on cell culture plates and binding assays of Pg 2 glycoforms were performed as described under Experimental Procedures.

1-LN cells = assay: In vitro Matrigel invasion assay (modified Boyden chamber); format: cell-based, human
Description: In Vitro Invasion Assay—The invasive activity in vitro was assessed by determining the ability of 1-LN cells to invade Matrigel® [47]. Polycarbonate filters (8-μm pore size; Becton Dickinson, Franklin Lakes, N.J.) were coated with Matrigel (12 μg/filter) and placed in a modified Boyden chamber. Cells (1×10^5) were added to the upper chamber in serum-free RPMI 1640 medium, or medium containing purified Pg 2 glycoforms in the absence and presence of anti-DPP IV, anti-u-PA or anti-MMP-9 IgGs, and incubated for 48 h in a humidified atmosphere. Following incubation, non-invading cells were removed from the upper chamber with a cotton swab, and filters were excised and stained with Cyto-Quik™ (Fisher Scientific, Fair Lawn, N.J.). Cells on the lower surface of the filter were enumerated using an ocular micrometer and counting a minimum of five high-powered fields. Each experiment was performed twice with triplicate samples.
Effect of Pg on 1-LN Cellular Invasion—Pg enhances the ability of prostate cancer PC-3 and DU-145 cell lines to penetrate the synthetic basement membrane Matrigel® [54]. To determine whether Pg regulates invasion via secretion of MMP-9, 1-LN cells were incubated with different inhibiting antibodies in the presence of purified Pg 2 glycoforms.

[2] = Serum-Free Medium + glycoform 0.1 μM
[3] = glycoform 0.1 μM +Anti-DPP IV IgG 50 μg/ml
[4] = glycoform 0.1 μM +Anti-MMP-9 IgG 20 μg/ml
[5] = glycoform 0.1 μM +Anti-u-PA IgG 100 μg/ml

| Inhibition of binding of 125I-labeled Pg 2γ, 2δ and 2ε to DPP IV ([1]; glycoforms 0.1 μM each, increasing concentrations of L-lactose) | Compound | Binding to immobilized DPP IV [1] | Relative Invasion (Number of Cells/Field) (1-LN cells; [2]) | Relative Invasion (Number of Cells/Field) (1-LN cells; [3]) | Relative Invasion (Number of Cells/Field) (1-LN cells; [4]) | Relative Invasion (Number of Cells/Field) (1-LN cells; [5]) | Enhancement of cellular invasion (1-LN cells; Matrigel invasion by 1-LN cells) |
| --- | --- | --- | --- | --- | --- | --- | --- |
| progressively inhibited | OC[C@@H]1O[C@H](O[C@@H]2[C@@H](O)[C@H](O)C(O)O[C@H]2CO)[C@@H](O)[C@H](O)[C@@H]1O (stereo partly drawn) [L-lactose, reference compound] | – | – | – | – | – | – |
| – | Pg 2α: glycoform of human plasminogen type 2 purified from plasma; 1.3 mol sialic acid/mol Pg | No specific binding | 13.5 ± 3.4 Number of Cells/Field | – | – | – | – |
| – | Pg 2β: glycoform of human plasminogen type 2 purified from plasma; 2.2 mol sialic acid/mol Pg | No specific binding | 9.4 ± 2.1 Number of Cells/Field | – | – | – | – |
| – | Pg 2γ: glycoform of human plasminogen type 2 purified from plasma; 2.95 mol sialic acid/mol Pg | bind to this DPP IV in a dose-dependent and saturable manner | 7.8 ± 1.6 Number of Cells/Field | 4.6 ± 2.7 Number of Cells/Field | 2.1 ± 1.2 Number of Cells/Field | 5.3 ± 2.8 Number of Cells/Field | – |
| – | Pg 2δ: glycoform of human plasminogen type 2 purified from plasma; 5.77 mol sialic acid/mol Pg | bind to this DPP IV in a dose-dependent and saturable manner | 9.2 ± 2.5 Number of Cells/Field | 10.4 ± 3.1 Number of Cells/Field | 1.8 ± 1.0 Number of Cells/Field | 7.8 ± 2.6 Number of Cells/Field | – |
| – | Pg 2ε: glycoform of human plasminogen type 2 purified from plasma; 5.34 mol sialic acid/mol Pg | bind to this DPP IV in a dose-dependent and saturable manner | 46.6 ± 5.4 Number of Cells/Field | 3.1 ± 1.6 Number of Cells/Field | 1.5 ± 1.0 Number of Cells/Field | 2.1 ± 1.3 Number of Cells/Field | 6-7 fold |
| – | Pg 2φ: glycoform of human plasminogen type 2 purified from plasma; 13.65 mol sialic acid/mol Pg | No specific binding | 6.8 ± 1.3 Number of Cells/Field | – | – | – | – |
